Read-outs that look alike come from different tables or passages of the source.
Legend:
Assay in all cases: Antifungal activity by the well-cut diffusion method
Assay type in all cases: cell-based
Microsporum gallinna [1] = conditions: for zone of inhibition at 1000 µg/mL: Microsporum, read-out: Inhibition Zone Dimeter (mm) M. gallina
Method: (§1) Microsporum canis and Microsporum gallinna were obtained from King Fahad Hospital in Jeddah, Saudi Arabia
(§2) Antifungal Activity by the Well-Cut Diffusion Method:
Well-cut diffusion technique was used to evaluate the antifungal activities of the_tested compounds [El-Masry et al. “Synthesis and antimicrobial activity of some new benzimidazole derivatives” Molecules, 5 (2002), pp. 1429-1438]. The Sabaroud dexterous agar media was inoculated with 1 ml from tested spore suspension, then wells were cut from the plate using a sterile 10 mm cork-borer. About 0.5 and 1.0 ml of a chloroform solution containing 1.0 mg/ml of tested compounds were added into each well. All plates were incubated at 4° C. for 2 h to slow fungal growth. The plates were later incubated at 28° C. for a week [Mtolera and Semesi “Antimicrobial activity of extracts from six green algae from Tanzania.” Curr. Trends Mar. Bot. Res. East Afr. Reg. pp. 211-217 (1996)]. After incubation, the diameter of the growth inhibition zone was measured in mm [Attaie et al. Inhibition of growth of S. aureus during production of acidophilus yogurt J. Food Prot., 50 (1987), pp. 224-228], see Table 3.

Microsporum canis = conditions: for zone of inhibition at 500 µg/mL / zone of inhibition at 1000 µg/mL: Microsporum canis, read-out: Inhibition Zone Dimeter (mm) M. canis
Method: as §1, §2
Well-cut diffusion technique was used to evaluate the antifungal activities of the_tested compounds [El-Masry et al. “Synthesis and antimicrobial activity of some new benzimidazole derivatives” Molecules, 5 (2002), pp. 1429-1438]. The Sabaroud dexterous agar media was inoculated with 1 ml from tested spore suspension, then wells were cut from the plate using a sterile 10 mm cork-borer. […] All plates were incubated at 4° C. for 2 h to slow fungal growth. The plates were later incubated at 28° C. for a week [Mtolera and Semesi “Antimicrobial activity of extracts from six green algae from Tanzania.” Curr. Trends Mar. Bot. Res. East Afr. Reg. pp. 211-217 (1996)]. After incubation, the diameter of the growth inhibition zone was measured in mm [Attaie et al. Inhibition of growth of S. aureus during production of acidophilus yogurt J. Food Prot., 50 (1987), pp. 224-228], see Table 3.

Microsporum gallinna [2] = conditions: for zone of inhibition at 500 µg/mL: Microsporum, read-out: Inhibition Zone Dimeter (mm) M. gallina
[3] = Concentration 1.0 mg/mL, 28° C. for a week, 10 mm wells
[4] = Concentration 0.5 mg/mL, 28° C. for a week, 10 mm wells

| Structure (SMILES) | Inhibition Zone Dimeter (mm) M. gallina (Microsporum gallinna [1]; [3]) [mm] | inhibition of Microsporum gallinna grown on the solid media (in words) (Microsporum gallinna [1]) | Inhibition Zone Dimeter (mm) M. canis (Microsporum canis; [4]) [mm] | Inhibition Zone Dimeter (mm) M. canis (Microsporum canis; [3]) [mm] | inhibition of Microsporum canis grown on the solid media (in words) (Microsporum canis) | Inhibition Zone Dimeter (mm) M. gallina (Microsporum gallinna [2]; [4]) [mm] | zone of inhibition at 1000 µg/mL (Microsporum gallinna [1]) [mm] | zone of inhibition at 500 µg/mL (Microsporum canis; [4]) [mm] | zone of inhibition at 1000 µg/mL (Microsporum canis; [3]) [mm] | zone of inhibition at 500 µg/mL (Microsporum gallinna [2]) [mm] | antimicrobial activity against M. canis, comparison among tested compounds (Microsporum canis; 0.5 mg/ml concentration) | antimicrobial activity against M. gallinna, comparison among tested compounds (Microsporum gallinna [2]; 0.5 mg/ml concentration) | zone of inhibition at 500 µg/mL (Microsporum canis) [mm] | zone of inhibition at 1000 µg/mL (Microsporum canis) [mm] |
| --- | --- | --- | --- | --- | --- | --- | --- | --- | --- | --- | --- | --- | --- | --- |
| C=CC(C)(CCC1OC1(C)C)OC(C)=O (centres unmarked) [Epoxide 3, 6,7-Epoxy-3,7-dimethyl-1-octene-3-yl-acetate] | 74.0 | strongly inhibited | 60.0 | 85.0 | strongly inhibited | 37.0 | – | – | – | – | – | – | – | – |
| C=CC(C)(CC=CC(C)(C)OO)OC(C)=O (centres unmarked) [Hydroperoxide 6, 7-Hydroperoxy-3,7-dimethylocta-1,5-diene-3-yl acetate] | – | strongly inhibited | – | – | strongly inhibited | – | 85 | 80 | 85 | 80 | – | – | – | – |
| C=CC(C)(CCC(OO)C(=C)C)OC(C)=O (centres unmarked) [Hydroperoxide 5, 6-Hydroperoxy-3,7-dimethylocta-1,7-diene-3-yl acetate] | – | strongly inhibited | – | – | strongly inhibited | – | 85 | 81 | 85 | 80.5 | highest antimicrobial activity | highest antimicrobial activity | – | – |
| C=CC(C)(CCC=C(C)C)OC(C)=O (centres unmarked) [Linalyl acetate, 3,7-Dimethyl-1,6-octadien-3-yl acetate, reference compound] | – | strongly inhibited | – | – | strongly inhibited | – | 85 | – | – | 80 | – | – | 80 | 85 |
| CC(=O)OC(C)(CCC=C(C)C)C1CO1 (centres unmarked) [Epoxide 4, 1,2-Epoxy-3,7-dimethyl-6-octene-3-yl acetate] | – | strongly inhibited | – | – | strongly inhibited | – | 85 | 75 | 85 | 65 | – | – | – | – |

— US10584106B1, “Antifungal compounds derived from lavender oil” (King Abdulaziz University, priority 2018, dated 2020)
